Reference: ChEMBL document CHEMBL4837220, “Development of tricyclic N-benzyl-4-hydroxybutanamide derivatives as inhibitors of GABA transporters mGAT1-4 with anticonvulsant, antinociceptive, and antidepressant activity” (Eur J Med Chem, 2021)
The source made the active and inactive calls.

Legend:
GABA transporter 4 = target: T1, GABA transporter 4 (Mus musculus, UniProt P31650); experiment: Inhibition of mouse GAT4 expressed in human HEK293 cell line assessed as inhibition of [3H]GABA uptake measured after 40 mins by […]; assay type: cell-based
T1 sequence (P31650 whole entry): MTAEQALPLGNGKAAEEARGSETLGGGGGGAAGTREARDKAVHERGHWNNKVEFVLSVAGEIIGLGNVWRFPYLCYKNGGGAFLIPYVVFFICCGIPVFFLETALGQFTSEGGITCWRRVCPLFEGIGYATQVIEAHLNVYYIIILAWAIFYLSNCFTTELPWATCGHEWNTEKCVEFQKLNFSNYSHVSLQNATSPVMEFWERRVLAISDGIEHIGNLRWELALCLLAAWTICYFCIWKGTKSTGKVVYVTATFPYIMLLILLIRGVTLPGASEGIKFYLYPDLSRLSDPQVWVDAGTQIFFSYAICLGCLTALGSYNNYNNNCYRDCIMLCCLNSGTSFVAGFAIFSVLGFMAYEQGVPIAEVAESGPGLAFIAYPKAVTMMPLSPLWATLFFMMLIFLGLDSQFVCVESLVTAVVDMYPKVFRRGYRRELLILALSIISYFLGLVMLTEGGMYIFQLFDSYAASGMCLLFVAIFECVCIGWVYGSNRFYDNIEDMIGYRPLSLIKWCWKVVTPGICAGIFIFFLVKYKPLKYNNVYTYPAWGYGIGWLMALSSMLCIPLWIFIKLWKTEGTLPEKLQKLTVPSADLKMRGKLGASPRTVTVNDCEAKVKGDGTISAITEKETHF

GABA transporter 2 = target: T2, GABA transporter 2 (Mus musculus, UniProt P31651); experiment: Inhibition of mouse GAT2 expressed in human HEK293 cell line assessed as inhibition of [3H]GABA uptake measured after 40 mins by […]; assay type: cell-based
T2 sequence (P31651 whole entry): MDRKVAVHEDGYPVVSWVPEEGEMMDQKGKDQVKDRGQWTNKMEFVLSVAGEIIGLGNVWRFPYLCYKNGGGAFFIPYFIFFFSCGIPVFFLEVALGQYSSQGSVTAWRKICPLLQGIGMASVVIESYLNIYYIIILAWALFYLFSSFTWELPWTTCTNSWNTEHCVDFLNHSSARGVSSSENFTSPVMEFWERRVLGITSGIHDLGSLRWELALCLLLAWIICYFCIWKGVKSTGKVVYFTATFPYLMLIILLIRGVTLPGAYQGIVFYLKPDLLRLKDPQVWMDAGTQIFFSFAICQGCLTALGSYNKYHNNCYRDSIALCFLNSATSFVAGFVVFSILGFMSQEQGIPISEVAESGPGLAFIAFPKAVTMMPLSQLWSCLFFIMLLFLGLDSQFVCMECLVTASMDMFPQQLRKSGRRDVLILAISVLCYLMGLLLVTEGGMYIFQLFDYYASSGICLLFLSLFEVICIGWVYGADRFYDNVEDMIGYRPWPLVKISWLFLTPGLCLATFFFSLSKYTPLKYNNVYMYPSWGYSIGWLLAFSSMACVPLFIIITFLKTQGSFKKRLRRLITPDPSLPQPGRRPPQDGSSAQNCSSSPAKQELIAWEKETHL

[1] = target: Sodium- and chloride-dependent GABA transporter 1 (Mus musculus) (UniProt P31648); experiment: Residual NO711 binding to mouse GAT1 expressed in human HEK293 cell line at 100 uM by MS binding assay relative to control
[2] = target: GABA transporter 3 (Mus musculus, Slc6a13); experiment: Inhibition of mouse GAT3 expressed in human HEK293 cell line assessed as inhibition of [3H]GABA uptake measured after 40 mins by […]
[3] = target: T3, Sodium- and chloride-dependent GABA transporter 1 (Mus musculus, UniProt P31648); experiment: Inhibition of mouse GAT1 expressed in human HEK293 cell line assessed as inhibition of [3H]GABA uptake measured after 40 mins by […]; assay type: cell-based
[4] = target: T3, Sodium- and chloride-dependent GABA transporter 1; experiment: Inhibition of NO711 binding to mouse GAT1 expressed in human HEK293 cell line by MS binding assay
Mus musculus = experiment: Anticonvulsant activity in CD-1 mouse assessed as elevation of seizure threshold at 10 mg/kg, ip measured by electroconvulsive threshold test relative to control; assay type: functional, organism-based
[5] = target: T4, GABA transporter 2 (Mus musculus) (UniProt P31651); experiment: Inhibition of mouse GAT2 expressed in human HEK293 cell line assessed as residual [3H]GABA uptake at 100 uM measured after 40 mins by […]
T4 sequence (whole entry): T2 sequence (P31651 whole entry)

Row | Structure (SMILES) | IC50 (GABA transporter 4) [µM] | IC50 (GABA transporter 2) [µM] | residual activity [1] [%] | pIC50 [2] | IC50 [3] [µM] | pKi [4] | Activity (Mus musculus) | residual activity [5] [%]
1 | CN(CCC=C(c1ccccc1)c1ccccc1)C(CCO)C(=O)NCc1ccccc1Cl (centres undefined) | 10 | 12.6 | 54 | 5.14 |  |  |  | 
2 | CN(CCC=C1c2ccccc2C=Cc2ccccc21)C(CCO)C(=O)NCc1ccc(Cl)cc1 (centres undefined) | 15.8 | 14.5 | 63 |  | 69.2 |  |  | 
3 | CN(CCC=C1c2ccccc2-c2ccccc21)C(CCO)C(=O)NCc1ccc(F)cc1 (centres undefined) | 35.5 | 25.7 | 90 |  | 37.2 |  |  | 
4 | CC(=O)NCCC(C(=O)NCc1ccc(F)cc1)N(C)CCC=C1c2ccccc2CCc2ccccc21 (centres undefined) | 11.2 | 19.5 | 71 |  | 13.8 |  |  | 
5 | CN(CCC=C1c2ccccc2CCc2ccccc21)C(CCN)C(=O)NCc1ccccc1Cl (centres undefined) | 4.9 | 13.5 |  |  | 6.61 | 4.87 |  | 
6 | CN(CCC=C1c2ccccc2-c2ccccc21)C(CCO)C(=O)NCc1ccccc1 (centres undefined) | 25.1 | 17.8 | 75 |  | 24 |  |  | 
7 | Cc1ccc(CNC(=O)C(CCN)N(C)CCC=C2c3ccccc3CCc3ccccc32)cc1 (centres undefined) | 6.46 | 11.2 |  |  | 7.24 | 5.14 |  | 
8 | Cc1ccc(CNC(=O)C(CCO)N(C)CCC=C2c3ccccc3C=Cc3ccccc32)cc1 (centres undefined) | 9.12 | 9.77 | 55 |  | 27.5 |  |  | 
9 | O=C(O)C1CCCN(CCC=C2c3ccccc3CCc3ccccc32)C1 (centres undefined) |  |  |  |  | 13.5 |  |  | 
10 | CN(CCC=C1c2ccccc2CCc2ccccc21)C(CCO)C(=O)NCc1ccc(F)cc1 (centres undefined) | 13.2 | 5.75 | 81 |  | 21.9 |  |  | 
11 | CN(CCC=C(c1ccccc1)c1ccccc1)C(CCN)C(=O)NCc1ccccc1Cl (centres undefined) |  |  |  |  |  | 4.96 |  | 
12 | CC(=O)NCCC(C(=O)NCc1ccc(C)cc1)N(C)CCC=C1c2ccccc2CCc2ccccc21 (centres undefined) | 13.5 | 15.5 | 69 |  | 13.8 |  |  | 
13 | CN(CCC=C1c2ccccc2CCc2ccccc21)C(CCN)C(=O)NCc1ccccc1 (centres undefined) | 4.68 | 9.55 |  |  | 8.13 | 4.78 |  | 
14 | CN(CCC=C1c2ccccc2CCc2ccccc21)C(CCO)C(=O)NCc1ccc(Cl)cc1 (centres undefined) | 15.8 | 7.76 | 79 |  | 10 |  |  | 
15 | CC(=O)NCCC(C(=O)NCc1ccccc1Cl)N(C)CCC=C1c2ccccc2CCc2ccccc21 (centres undefined) | 18.6 | 26.3 | 87 |  | 28.8 |  |  | 
16 | CN(CCC=C1c2ccccc2C=Cc2ccccc21)C(CCO)C(=O)NCc1ccc(F)cc1 (centres undefined) | 13.5 | 10.2 | 71 |  | 21.9 |  |  | 
17 | CN(CCC=C1c2ccccc2-c2ccccc21)C(CCO)C(=O)NCc1ccc(Cl)cc1 (centres undefined) | 44.7 | 32.4 | 91 |  | 42.7 |  |  | 
18 | CN(CCC=C1c2ccccc2CCc2ccccc21)C(CCO)C(=O)NCc1ccccc1Cl (centres undefined) | 15.8 | 11 | 82 |  | 25.1 |  |  | 
19 | CN(CCC=C1c2ccccc2C=Cc2ccccc21)C(CCO)C(=O)NCc1ccccc1Cl (centres undefined) | 9.55 | 6.76 | 69 |  | 20.9 |  |  | 
20 | CC(=O)NCCC(C(=O)NCc1ccccc1)N(C)CCC=C1c2ccccc2CCc2ccccc21 (centres undefined) | 17.8 | 37.2 | 77 |  | 28.8 |  |  | 
21 | CC(=O)NCCC(C(=O)NCc1ccc(Cl)cc1)N(C)CCC=C1c2ccccc2CCc2ccccc21 (centres undefined) | 12.6 | 47.9 | 90 |  | 28.2 |  |  | 
22 | O=C(O)C1=CCCN(CCO/N=C/c2ccccc2-c2ccc(Cl)cc2Cl)C1 |  | 49 |  | 4.35 |  | 8.29 | inactive | 
23 | Cc1ccc(CNC(=O)C(CCO)N(C)CCC=C2c3ccccc3-c3ccccc32)cc1 (centres undefined) | 30.9 | 30.2 | 99 |  | 31.6 |  |  | 
24 | CC(=O)NCCC(C(=O)NCc1ccccc1Cl)N(C)CCC=C(c1sccc1C)c1sccc1C (centres undefined) |  | 4.47 |  | 5.61 |  |  |  | 
25 | O=C(O)[C@@H]1CCCN(CCC=C2c3ccccc3-c3ccccc32)C1 |  |  |  |  | 2 |  |  | 
26 | CN(CCC=C1c2ccccc2CCc2ccccc21)C(CCN)C(=O)NCc1ccc(Cl)cc1 (centres undefined) | 5.62 | 11 |  |  | 6.31 | 4.6 |  | 
27 | CN(CCC=C1c2ccccc2-c2ccccc21)C(CCO)C(=O)NCc1ccccc1Cl (centres undefined) | 26.9 | 25.7 | 93 |  | 33.1 |  |  | 
28 | CN(CCC=C1c2ccccc2CCc2ccccc21)C(CCN)C(=O)NCc1ccc(F)cc1 (centres undefined) | 4.37 | 11.7 |  |  | 6.31 | 4.96 |  | 
29 | COc1ccc(C(OCCN2CCC[C@H](C(=O)O)C2)(c2ccc(OC)cc2)c2ccc(-c3ccc(C=O)cc3)cc2)cc1 | 1.29 |  | 77 |  | 72.4 |  |  | 73
30 | CN(CCC=C1c2ccccc2CCc2ccccc21)C(CCO)C(=O)NCc1ccccc1 (centres undefined) | 17 | 9.12 | 51 |  | 20 |  |  | 
